Experimental data reported in patent publication US20250214925A1, “CATIONIC LIPID, LIPOSOME, LIPID NANOPARTICLE, AND USE” (CARCELL BIOPHARMA LTD., priority 2022, published 2025).

How the values were obtained:
[1] = mRNA encapsulation efficiency of LNP by Ribogreen assay; format: physicochemical; details: LNP: 50% cationic lipid, 38.5% cholesterol, 10% DSPC, 1.5% DMG-PEG2000; Ffluc mRNA
Summary of the method: (§1)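 LNPs of cationic lipid/cholesterol/DSPC/DMG-PEG2000 at 50/38.5/10/1.5 mol% in ethanol, mixed with Ffluc mRNA at 0.2 mg/mL in 10 mM pH 4.0 citrate via T-mixer at 40 mL/min. Dialyzed overnight against 50 mM Tris-buffered saline pH 7.4 and sieved; PDI by dynamic light scattering, encapsulation by Ribogreen.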

mice [2] = experiment: In vivo delivery of Ffluc mRNA LNP in mice, intramuscular administration, luminescence relative to MC3; design: species or system mice (female Balb/C); details: fold change in luminescence intensity relative to MC3; 50 μL of 0.1 mg/mL mRNA LNP into right thigh; 6 h after injection
Description: The prepared encapsulation solution was applied to mice in the following manner, and its delivery efficiency in mice was tested. Among them, DLin-MC3-DMA (MC3) was a cationic liposome for delivering small nucleic acids that was approved by the FDA for marketing in 2018, which has high nucleic acid drug delivery efficiency and biosafety, and was usually used as the industry gold standard in the screening process of cationic lipids. In the evaluation of mice experiments, the ratio of nucleic acid delivery efficiency normalized to MC3 was greater than 0.1, which was considered to be a cationic lipid with high delivery efficiency.
The LNP solution was diluted with 50 mM TBS, pH 7.4 to a concentration of 0.1 mg/mL mRNA.
2. The mice involved in this study were female Balb/C, weighing 18-22 g, 6-8 weeks old, with 5 mice in each group.
3. The dosing solution was kept at 4° C. prior to injection.
4. 50 μL of LNP solution was injected into the right thigh of the mice.
5. The mice were injected intraperitoneally with 200 μL of 1.5 mg/mL D-luciferin solution 6 h after injection.
6. The in vivo luminescence images of the mice were obtained using the IVIS system (Aniview).
7. The luminescence intensity of each mice was measured using Aniview software.
8. MC3 lipid nanoparticles were used as a positive control. The in vivo efficacy of each cationic lipid tested was recorded as the fold change in luminescence intensity relative to MC3 (ratio normalized to MC3).

[3] = LNP size and PDI by dynamic laser light scattering; format: physicochemical; details: LNP: 50% cationic lipid, 38.5% cholesterol, 10% DSPC, 1.5% DMG-PEG2000; Ffluc mRNA
Summary of the method: as §1

mice [4] = experiment: In vivo delivery of Ffluc mRNA LNP in mice, intravenous administration, luminescence relative to MC3; design: species or system mice (female Balb/C); details: fold change in luminescence intensity relative to MC3; 0.06 mg/kg tail vein; 6 h after injection
Summary of the method: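 Female Balb/C mice (18-22 g, 6-8 weeks, n=5) received Ffluc mRNA LNP at 0.06 mg/kg by tail vein in 50 mM TBS pH 7.4. Six hours later, intraperitoneal D-luciferin was given and whole-body luminescence imaged, with each lipid reported as fold change relative to MC3 LNP.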

Encapsulation Rate [1] | PDI [3] | Size (nm) [3] | Compound | In Vivo Efficacy Normalized To Mc3 In Mice (Intramuscular Injection) (mice [2]) | In Vivo Efficacy Normalized To Mc3 In Mice (Intravenous Injection) (mice [4])
95% | 0.2143 | 71.34 nm | CCCCCCCCCC/C(=C\C(=O)OCCCCN(CCCO)CCCCOC(=O)/C=C(/CCCCC)CCCCCCCCCC)CCCCC [CPL-026, ((3-hydroxypropyl)azanediyl)bis(butane-4,1-diyl) (2Z,2′Z)-bis(3-pentyltridec-2-enoate)] | 0.92 | 2.51
98% | 0.0828 | 67.12 nm | CCCCCCCCCC/C(=C/C(=O)OCCCCCCN(CCCO)CCCCCCOC(=O)/C=C(\CCC)CCCCCCCCCC)CCC [CPL-062-01, ((3-hydroxypropyl)azanediyl)bis(hexane-6,1-diyl) (2E,2′E)-bis(3-propyltridec-2-enoate)] | 1.06 | 2.21
98% | 0.19 | 87.2 nm | CCCCCCCCCC/C(=C/C(=O)OCCCCCCN(CCCO)CCCCCCOC(=O)/C=C(\CCCC)CCCCCCCCCC)CCCC [CPL-066, ((3-hydroxypropyl)azanediyl)bis(hexane-6,1-diyl) (2E,2′E)-bis(3-butyl-2-tridecenoate)] | 4.04 | 1.95
95% | 0.2173 | 100.4 nm | CCCCCCCCCC/C(=C\C(=O)OCCCCCCN(CCCO)CCCCCCOC(=O)/C=C(/CCCCC)CCCCCCCCCC)CCCCC [CPL-070, ((3-hydroxypropyl)azanediyl)bis(hexane-6,1-diyl) (2Z,2′Z)-bis(3-pentyltridec-2-enoate)] | 1.85 | 3.74
92% | 0.1733 | 88.06 nm | CCCCCCC(=CC(=O)OCCCCCCN(CCCO)CCCCCCOC(=O)C=C(CCCCCC)CCCCCC)CCCCCC [CPL-071, ((3-hydroxypropyl)azanediyl)bis(hexane-6,1-diyl) (2E,2′E)-bis(3-hexylnon-2-enoate)] | 7.81 | 2.05
99% | 0.3691 | 95.7 nm | CCCCCCC/C(=C/C(=O)OCCCCCCN(CCCO)CCCCCCOC(=O)/C=C(\CCCC)CCCCCCC)CCCC [CPL-074, ((3-hydroxypropyl)azanediyl)bis(hexane-6,1-diyl) (2E,2′E)-bis(3-butyldec-2-enoate)] | 7.93 | 2.40
97% | 0.21 | 98.6 nm | CCCCCCCCCC/C(=C/C(=O)OCCCCCCCN(CCCO)CCCCCCCOC(=O)/C=C(\CCCCC)CCCCCCCCCC)CCCCC [CPL-092-01, ((3-hydroxypropyl)azanediyl)di(heptane-7,1-diyl) (2E,2′E)-di(3-pentyltridec-2-enoate)] | 2.20 | 8.96
95% | 0.1973 | 71.62 nm | CCCCCCC/C(=C/C(=O)OCCCCCCCN(CCCO)CCCCCCCOC(=O)/C=C(\CCCC)CCCCCCC)CCCC [CPL-096, ((3-hydroxypropyl)azanediyl)bis(heptane-7,1-diyl)(2E,2′E)-bis(3-butyldec-2-enoate)] | 2.59 | 2.06
96% | 0.24 | 97.7 nm | CCCCCCCC/C(=C/C(=O)OCCCCCCCCN(CCCO)CCCCCCCCOC(=O)/C=C(\CCCCC)CCCCCCCC)CCCCC [CPL-113-01, ((3-hydroxypropyl)azanediyl)bis(octane-8,1-diyl) (2E,2′E)-bis(3-pentylundec-2-enoate)] | 1.65 | 2.52
92% | 0.0486 | 94.43 nm | CCCCCCCC/C(=C/C(=O)OCCCCCCCCCN(CCCO)CCCCCCCCCOC(=O)/C=C(\CCC)CCCCCCCC)CCC [CPL-127, ((3-hydroxypropyl)azanediyl)bis(nonane-9,1-diyl) (2E,2′E)-bis(3-propylundec-2-enoate)] | 2.37 | 2.54
97% | 0.0569 | 80.25 nm | CCCCC/C(=C/C(=O)OCCCCCCCCCN(CCCO)CCCCCCCCCOC(=O)/C=C(\CCCC)CCCCC)CCCC [CPL-133-01, ((3-hydroxypropyl)azanediyl)bis(nonane-9,1-diyl) (2E,2′E)-bis(3-butyloct-2-enoate)] | 6.61 | 3.54
98% | 0.2 | 92.9 nm | CCCCCCCCCC/C(=C\C(=O)OCCCCCCCCCN(CCCO)CCCCCCCCCOC(=O)/C=C(\CCCCC)CCCCCCCCCC)CCCCC [CPL-136] | 1.61 | 2.81
99% | 0.21 | 112.08 nm | CCCCCCCCCC/C(=C/C(=O)OCCCCCCCCCCN(CCCO)CCCCCOC(=O)/C=C(\CCCC)CCCCCCCCCC)CCC [CPL-1093, 10-(((5-(E)-3-butyltridec-2-enoyl)oxy)pentyl)((3-hydroxypropyl)amino)decyl(E)-3-propyl-2-tridecenoate] | – | 1.55

Compound | Encapsulation Rate [1] | PDI [3] | Size (nm) [3] | In Vivo Efficacy Normalized To Mc3 In Mice (Intramuscular Injection) (mice [2]) | In Vivo Efficacy Normalized To Mc3 In Mice (Intravenous Injection) (mice [4])
CCCCCCCC/C(=C/C(=O)OCCCCCCN(CCCO)CCCCCCOC(=O)/C=C(\CCCCC)CCCCCCCC)CCCCC [CPL-069-01, ((3-hydroxypropyl)azanediyl)bis(hexane-6,1-diyl) (2E,2′E)-bis(3-pentylundec-2-enoate)] | 97% | 0.126 | 84.59 nm | 1.72 | 2.70
CCCCCCCCCC/C(=C/C(=O)OCCCCCCN(CCCO)CCCCCCOC(=O)/C=C(\CCCCCCCC)CCCCCCCCCC)CCCCCCCC [CPL-079, ((3-hydroxypropyl)azanediyl)bis(hexane-6,1-diyl) (2E,2′E)-bis(3-octyltridec-2-enoate)] | 94% | 0.1557 | 94.46 nm | 1.30 | 4.95
CCCCCCCCCC/C(=C\C(=O)OCCCCCCCN(CCCO)CCCCCCCOC(=O)/C=C(/CCCCCCCC)CCCCCCCCCC)CCCCCCCC [CPL-101, ((3-hydroxypropyl)azanediyl)bis(heptane-7,1-diyl)(2Z,2′Z)-bis(3-octyltridec-2-enoate)] | 95% | 0.0791 | 69.38 nm | 1.76 | 2.90
CCCCC/C=C\C/C=C\CCCCCCCC(=O)OCC(COC(=O)C=C(CCCCCCCCCC)CCCCCCCCCC)COC(=O)OCC1CCN(CC)CC1 (stereo not shown) [CPL-454, 3-((3-decyltridec-2-enoyl)oxy)-2-(((((1-ethylpiperidin-4-yl)methoxy)carbonyl)oxy)methyl)propyl(9Z,12Z)-octadeca-9,12-dienoate] | 99% | 0.1315 | 83.51 nm | – | 0.88
((3-hydroxypropyl)azanediyl)bis(butane-4,1-diyl) (2E,2′E)-bis(2-hexylidenedecanoate) [CPL-025] | 97% | 0.2 | 92.1 nm | – | 1.34
((3-hydroxypropyl)azanediyl)bis(butane-4,1-diyl)(2E,2′E)-bis(3-butylundec-2-enoate) [CPL-021] | 95% | 0.0729 | 69.64 nm | – | 0.75
